Legend:
cKIT = cKIT (Homo sapiens, UniProt P10721); assay: KIT-WT LanthaScreen binding assay (Kd); settings: single eight-point titrations, TR-FRET LanthaScreen Binding Assay; R^2 of fit in parentheses; read-out: Enzymatic Assay KIT (Kd)
Procedure: The TR-FRET-based LanthaScreen Binding Assay was performed to determine Kd values of synthesized derivatives against cKIT.
Subsequently, 8 µL of kinase anti-GST antibody mixture was added, followed by incubation at 4 °C for 30 min in a pre-cooled, humidified box to minimize edge effects. The reaction was initiated by adding 5 µL of tracer working solution and mixed on a Bioshake 5000 microplate shaker (Q Instruments, Jena, Germany). […] Kd values were calculated from sigmoidal dose-response curves using Scigilian Analyze software version 5.8.5.15 (Scigilian, Montreal, QC, Canada).

[1] = tested on: Ba/F3 cells engineered to be dependent on CSF1R; assay: Cell viability assay with Ba/F3-hCSF1R cells; type: cell-based
Procedure: (§1) Given the promising enzymatic activity of the synthesized derivatives, cellular assays were performed using Ba/F3 cells engineered to depend on constitutively active CSF1R. […] We have also previously observed a low correlation between enzymatic and cellular activities, which may arise from the enzymatic protein construct not accurately mimicking the active conformation of CSF1R in a cellular context.
(§2) Performed as reported previously.

[2] = tested on: Ba/F3 cells engineered to be dependent on CSF1R but added additional IL-3; assay: Cell viability assay with Ba/F3-hCSF1R cells with added IL-3; type: cell-based; settings: Mus musculus, BaF3; Ba/F3 CSF1R cells with additional IL-3; read-out: Cellular Assay IC50 (μM), Ba/F3 IL-3
Procedure: as §1, §2

[3] = Microsomal stability, human liver microsomes; type: in vitro ADME; settings: human liver microsome
Procedure: The aqueous solubility of the compounds and metabolic stability under oxidative conditions was performed as described previously.

panel of 50 kinases = assay: Kinase panel selectivity; type: biochemical; settings: 1 μM
Procedure: To further evaluate potential off-target activity, compound 14c was screened against a panel of 50 kinases at a concentration of 1 μM. […] Inhibitor selectivity can be quantified using the selectivity score (S-score), which assumes that low inhibitory activity is clinically irrelevant. The S-score is calculated by dividing the number of kinases inhibited above a defined threshold by the total number of kinases tested. […] Further details on the selectivity data can be found in SI (Table S1). […]
(§3) Ta b l e S 1. Inhibition (%) by compound 14c towards di7erent kinases. Values are average of two
(§4) measurements at 1000 nM test concentration. The ATP concentration was equal to KM.
(§5) Kinase ATP conc. % inhibition

ABL1 = ABL1 (Homo sapiens, UniProt P00519); assay: Kinase panel; type: biochemical
Procedure: as §3, §4, §5

ABL2 = ABL2 (Homo sapiens, UniProt P42684); assay: Kinase panel; type: biochemical
Procedure: as §3, §4, §5

Aurora A = Aurora A (Homo sapiens, UniProt O14965); assay: Kinase panel; type: biochemical
Aurora A, sequence (O14965 whole entry): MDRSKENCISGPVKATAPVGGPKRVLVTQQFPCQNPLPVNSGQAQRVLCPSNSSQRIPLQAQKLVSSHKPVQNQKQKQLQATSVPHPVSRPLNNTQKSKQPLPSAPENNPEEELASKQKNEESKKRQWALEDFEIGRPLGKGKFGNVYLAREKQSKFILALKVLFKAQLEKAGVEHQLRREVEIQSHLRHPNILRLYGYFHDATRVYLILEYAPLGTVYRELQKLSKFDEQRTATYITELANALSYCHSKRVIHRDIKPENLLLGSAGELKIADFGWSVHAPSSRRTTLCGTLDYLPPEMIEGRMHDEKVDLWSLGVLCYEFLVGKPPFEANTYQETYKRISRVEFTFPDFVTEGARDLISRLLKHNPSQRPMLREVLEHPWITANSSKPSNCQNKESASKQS
Procedure: as §3, §4, §5

Aurora B = Aurora B (Homo sapiens, UniProt Q96GD4); assay: Kinase panel; type: biochemical
Procedure: as §3, §4, §5

BTK = BTK (Homo sapiens, UniProt Q06187); assay: Kinase panel; type: biochemical
Procedure: as §3, §4, §5

CDK1 = CDK1 (Homo sapiens, UniProt P06493); assay: Kinase panel; type: biochemical
Procedure: as §3, §4, §5

CHEK1 = CHEK1 (Homo sapiens, UniProt O14757); assay: Kinase panel; type: biochemical
Procedure: as §3, §4, §5

CSF1R = CSF1R (Homo sapiens, UniProt P07333); assay: Kinase panel; type: biochemical
Procedure: as §3, §4, §5

EGFR = EGFR (Homo sapiens, UniProt P00533); assay: Kinase panel; type: biochemical
Procedure: as §3, §4, §5

ERBB4 = ERBB4 (Homo sapiens, UniProt Q15303); assay: Kinase panel; type: biochemical
Procedure: as §3, §4, §5

FER = FER (Homo sapiens, UniProt P16591); assay: Kinase panel; type: biochemical
Procedure: as §3, §4, §5

FGFR1 = FGFR1 (Homo sapiens, UniProt P11362); assay: Kinase panel; type: biochemical
Procedure: as §3, §4, §5

FLT1 = FLT1 (Homo sapiens, UniProt P17948); assay: Kinase panel; type: biochemical
Procedure: as §3, §4, §5

FLT4 = FLT4 (Homo sapiens, UniProt P35916); assay: Kinase panel; type: biochemical
Procedure: as §3, §4, §5

FRAP1 = FRAP1 (Homo sapiens, UniProt P42345); assay: Kinase panel; type: biochemical
Procedure: as §3, §4, §5

FYN = FYN (Homo sapiens, UniProt P06241); assay: Kinase panel; type: biochemical
FYN, sequence (P06241 whole entry, species assumed): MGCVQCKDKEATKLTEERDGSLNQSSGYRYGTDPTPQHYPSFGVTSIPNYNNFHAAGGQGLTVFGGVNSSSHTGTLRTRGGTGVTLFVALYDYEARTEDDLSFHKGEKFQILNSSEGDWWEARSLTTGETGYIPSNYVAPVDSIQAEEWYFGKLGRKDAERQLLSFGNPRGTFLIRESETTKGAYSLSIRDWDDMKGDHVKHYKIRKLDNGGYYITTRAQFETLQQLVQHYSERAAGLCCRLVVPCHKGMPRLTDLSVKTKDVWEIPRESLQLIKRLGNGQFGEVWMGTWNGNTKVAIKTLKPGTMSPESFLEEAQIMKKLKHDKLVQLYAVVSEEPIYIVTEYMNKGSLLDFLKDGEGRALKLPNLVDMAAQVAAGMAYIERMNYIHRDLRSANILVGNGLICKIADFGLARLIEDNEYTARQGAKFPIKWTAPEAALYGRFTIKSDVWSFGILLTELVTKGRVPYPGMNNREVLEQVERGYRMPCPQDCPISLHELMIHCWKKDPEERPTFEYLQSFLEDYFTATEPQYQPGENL
Procedure: as §3, §4, §5

ITK = ITK (Homo sapiens, UniProt Q08881); assay: Kinase panel; type: biochemical
ITK, sequence (Q08881 whole entry, species assumed): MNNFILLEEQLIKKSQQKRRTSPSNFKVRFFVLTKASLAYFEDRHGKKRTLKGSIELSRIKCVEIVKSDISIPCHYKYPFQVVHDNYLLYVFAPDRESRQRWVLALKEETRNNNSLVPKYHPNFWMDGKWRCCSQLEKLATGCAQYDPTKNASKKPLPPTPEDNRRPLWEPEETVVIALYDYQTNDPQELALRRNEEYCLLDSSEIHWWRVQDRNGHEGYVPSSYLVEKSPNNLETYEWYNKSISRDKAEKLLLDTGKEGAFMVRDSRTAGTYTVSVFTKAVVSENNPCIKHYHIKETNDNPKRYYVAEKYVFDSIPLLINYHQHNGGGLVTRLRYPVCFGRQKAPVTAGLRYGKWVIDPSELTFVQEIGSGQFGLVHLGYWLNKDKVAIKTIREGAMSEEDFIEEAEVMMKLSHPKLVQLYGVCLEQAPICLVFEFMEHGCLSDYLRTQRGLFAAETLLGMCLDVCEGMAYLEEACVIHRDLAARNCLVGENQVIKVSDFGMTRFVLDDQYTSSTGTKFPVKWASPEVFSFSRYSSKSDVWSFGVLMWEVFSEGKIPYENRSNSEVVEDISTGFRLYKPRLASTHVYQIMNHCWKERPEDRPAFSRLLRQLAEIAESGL
Procedure: as §3, §4, §5

JAK2 = JAK2 (Homo sapiens, UniProt O60674); assay: Kinase panel; type: biochemical
Procedure: as §3, §4, §5

MET = MET (Homo sapiens, UniProt P08581); assay: Kinase panel; type: biochemical
Procedure: as §3, §4, §5

MINK1 = MINK1 (Homo sapiens, UniProt Q8N4C8); assay: Kinase panel; type: biochemical
MINK1, sequence (Q8N4C8 whole entry, species assumed): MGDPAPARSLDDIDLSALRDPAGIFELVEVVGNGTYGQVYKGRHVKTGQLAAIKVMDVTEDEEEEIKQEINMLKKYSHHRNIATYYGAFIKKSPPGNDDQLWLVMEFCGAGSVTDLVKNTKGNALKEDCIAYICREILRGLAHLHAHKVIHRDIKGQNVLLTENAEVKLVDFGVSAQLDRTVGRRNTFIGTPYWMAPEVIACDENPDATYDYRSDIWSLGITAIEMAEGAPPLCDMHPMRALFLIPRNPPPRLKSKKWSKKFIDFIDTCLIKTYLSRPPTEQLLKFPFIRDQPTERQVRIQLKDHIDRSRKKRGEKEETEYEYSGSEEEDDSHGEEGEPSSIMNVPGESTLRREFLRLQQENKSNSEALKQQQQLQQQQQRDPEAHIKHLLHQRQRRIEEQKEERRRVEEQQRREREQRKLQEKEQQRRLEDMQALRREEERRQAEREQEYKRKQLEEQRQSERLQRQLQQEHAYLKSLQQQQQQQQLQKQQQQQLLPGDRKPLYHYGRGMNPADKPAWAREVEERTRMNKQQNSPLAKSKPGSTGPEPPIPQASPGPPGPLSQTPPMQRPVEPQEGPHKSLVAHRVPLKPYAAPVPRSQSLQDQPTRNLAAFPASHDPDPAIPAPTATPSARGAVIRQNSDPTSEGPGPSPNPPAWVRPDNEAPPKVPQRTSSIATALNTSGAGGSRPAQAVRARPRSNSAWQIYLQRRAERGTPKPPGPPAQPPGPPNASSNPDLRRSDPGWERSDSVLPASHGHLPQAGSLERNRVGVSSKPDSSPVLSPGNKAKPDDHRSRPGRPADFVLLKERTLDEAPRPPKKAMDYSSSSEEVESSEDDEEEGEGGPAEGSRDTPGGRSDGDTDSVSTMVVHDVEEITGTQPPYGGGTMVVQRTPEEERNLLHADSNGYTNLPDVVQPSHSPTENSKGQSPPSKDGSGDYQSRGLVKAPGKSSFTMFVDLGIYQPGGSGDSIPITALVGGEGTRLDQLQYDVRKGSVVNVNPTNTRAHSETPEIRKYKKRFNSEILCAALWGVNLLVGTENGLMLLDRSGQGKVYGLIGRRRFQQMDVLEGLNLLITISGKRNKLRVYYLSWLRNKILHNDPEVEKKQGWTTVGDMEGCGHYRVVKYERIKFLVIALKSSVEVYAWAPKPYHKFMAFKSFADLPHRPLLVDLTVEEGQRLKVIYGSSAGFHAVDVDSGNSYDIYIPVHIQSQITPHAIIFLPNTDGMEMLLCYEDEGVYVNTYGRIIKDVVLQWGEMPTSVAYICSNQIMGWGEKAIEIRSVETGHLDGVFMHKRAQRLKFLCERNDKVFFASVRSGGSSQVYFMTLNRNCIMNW
Procedure: as §3, §4, §5

MKNK1 = MKNK1 (Homo sapiens, UniProt Q9BUB5); assay: Kinase panel; type: biochemical
Procedure: as §3, §4, §5

MUSK = MUSK (Homo sapiens, UniProt O15146); assay: Kinase panel; type: biochemical
Procedure: as §3, §4, §5

PAK1 = PAK1 (Homo sapiens, UniProt Q13153); assay: Kinase panel; type: biochemical
Procedure: as §3, §4, §5

PDGFRB = PDGFRB (Homo sapiens, UniProt P09619); assay: Kinase panel; type: biochemical; settings: 1000 nM test concentration, ATP Km app, average of two measurements
PDGFRB, sequence (P09619 33-1106, species assumed): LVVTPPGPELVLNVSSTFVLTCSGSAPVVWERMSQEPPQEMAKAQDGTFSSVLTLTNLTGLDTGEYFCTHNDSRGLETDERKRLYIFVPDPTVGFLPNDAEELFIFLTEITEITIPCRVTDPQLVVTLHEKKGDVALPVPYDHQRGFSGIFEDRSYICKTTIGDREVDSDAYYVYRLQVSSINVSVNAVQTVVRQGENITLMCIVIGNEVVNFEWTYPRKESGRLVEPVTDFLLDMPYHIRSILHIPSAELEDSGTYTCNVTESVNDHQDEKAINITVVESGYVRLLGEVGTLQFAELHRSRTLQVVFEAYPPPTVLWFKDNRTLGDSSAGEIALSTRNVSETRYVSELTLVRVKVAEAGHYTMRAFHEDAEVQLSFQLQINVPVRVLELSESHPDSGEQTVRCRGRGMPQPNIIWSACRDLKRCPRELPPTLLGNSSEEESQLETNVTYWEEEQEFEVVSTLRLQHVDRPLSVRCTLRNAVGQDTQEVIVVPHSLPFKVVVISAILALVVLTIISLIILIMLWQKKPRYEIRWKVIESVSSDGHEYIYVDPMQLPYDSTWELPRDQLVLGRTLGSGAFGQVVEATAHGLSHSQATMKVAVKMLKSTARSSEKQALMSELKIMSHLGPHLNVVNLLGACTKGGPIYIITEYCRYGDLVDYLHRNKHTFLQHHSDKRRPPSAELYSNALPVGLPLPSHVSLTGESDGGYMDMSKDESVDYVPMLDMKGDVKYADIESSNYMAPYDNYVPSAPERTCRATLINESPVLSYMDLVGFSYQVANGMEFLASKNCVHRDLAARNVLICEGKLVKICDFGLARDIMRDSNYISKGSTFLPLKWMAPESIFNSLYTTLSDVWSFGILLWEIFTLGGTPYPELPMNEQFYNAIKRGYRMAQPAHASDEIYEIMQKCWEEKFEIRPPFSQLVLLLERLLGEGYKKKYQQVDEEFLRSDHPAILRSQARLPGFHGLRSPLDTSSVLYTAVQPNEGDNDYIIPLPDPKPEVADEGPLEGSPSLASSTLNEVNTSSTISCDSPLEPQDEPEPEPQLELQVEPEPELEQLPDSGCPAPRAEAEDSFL
Procedure: as §3, §4, §5

PLK1 = PLK1 (Homo sapiens, UniProt P53350); assay: Kinase panel; type: biochemical
Procedure: as §3, §4, §5

RET = RET (Homo sapiens, UniProt P07949); assay: Kinase panel; type: biochemical
Procedure: as §3, §4, §5

ROCK1 = ROCK1 (Homo sapiens, UniProt Q13464); assay: Kinase panel; type: biochemical
Procedure: as §3, §4, §5

TEK = TEK (Homo sapiens, UniProt Q02763); assay: Kinase panel; type: biochemical
TEK, sequence (Q02763 23-1124, species assumed): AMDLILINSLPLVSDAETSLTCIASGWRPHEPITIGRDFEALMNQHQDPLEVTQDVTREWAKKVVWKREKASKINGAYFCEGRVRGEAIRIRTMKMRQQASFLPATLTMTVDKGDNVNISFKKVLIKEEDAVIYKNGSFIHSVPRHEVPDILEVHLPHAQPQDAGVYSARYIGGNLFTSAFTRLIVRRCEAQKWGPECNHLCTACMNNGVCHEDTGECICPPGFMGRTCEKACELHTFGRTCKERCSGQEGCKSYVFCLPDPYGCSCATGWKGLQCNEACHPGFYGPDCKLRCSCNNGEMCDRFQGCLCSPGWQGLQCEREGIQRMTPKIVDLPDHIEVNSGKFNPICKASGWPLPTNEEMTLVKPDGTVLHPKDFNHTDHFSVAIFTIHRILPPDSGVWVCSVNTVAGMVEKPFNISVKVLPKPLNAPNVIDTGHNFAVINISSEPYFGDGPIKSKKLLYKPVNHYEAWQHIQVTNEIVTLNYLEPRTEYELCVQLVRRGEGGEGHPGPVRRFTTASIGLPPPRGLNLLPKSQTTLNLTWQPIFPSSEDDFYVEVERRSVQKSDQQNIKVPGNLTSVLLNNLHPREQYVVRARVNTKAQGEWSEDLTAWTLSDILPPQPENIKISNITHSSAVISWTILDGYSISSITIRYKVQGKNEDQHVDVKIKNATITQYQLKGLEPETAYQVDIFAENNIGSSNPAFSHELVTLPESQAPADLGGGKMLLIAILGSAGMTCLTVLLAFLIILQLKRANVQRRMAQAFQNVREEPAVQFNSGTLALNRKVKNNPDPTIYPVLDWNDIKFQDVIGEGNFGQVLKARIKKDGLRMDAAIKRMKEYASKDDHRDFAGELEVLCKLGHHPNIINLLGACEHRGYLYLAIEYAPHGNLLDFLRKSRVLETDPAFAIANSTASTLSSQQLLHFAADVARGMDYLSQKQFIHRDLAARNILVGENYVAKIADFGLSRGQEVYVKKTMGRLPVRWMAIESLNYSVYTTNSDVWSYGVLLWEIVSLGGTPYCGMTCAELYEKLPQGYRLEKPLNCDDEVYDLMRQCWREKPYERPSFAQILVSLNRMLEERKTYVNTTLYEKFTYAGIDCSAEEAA
Procedure: as §3, §4, §5

With `Cc1cccc(CN(C)c2ncnc3[nH]c(-c4ccc(NCc5ccc(C(F)(F)F)nc5)nc4)cc23)c1` [Compound 14c, N-Methyl-N-(3-methylbenzyl)-6-(6-(((6-(trifluoromethyl)pyridin-3-yl)methyl)amino)pyridin-3-yl)-7H-pyrrolo[2,3-d]pyrimidin-4-amine] the Kd (cKIT) was > 1 µM, the “Cellular activity in Ba/F3 CSF1R cells (in words)” value ([1]; Ba/F3 cells dependent on constitutively active CSF1R) was “completely inactive in cells” and the IC50 ([1]; Mus musculus, BaF3, Ba/F3 cells dependent on CSF1R, with standard deviation, read-out: Cellular Assay IC50 (μM), Ba/F3 CSF1R) was > 10 µM. The IC50 [2] was > 10 µM, the “HLM in vitro intrinsic clearing” value [3] was 77 µL/min/mg and the “Selectivity towards CSF1R in kinase panel (in words)” value (panel of 50 kinases) was “high selectivity”. For the same molecule, the inhibition at 1 µM (ABL1) was 71%, the inhibition at 1 µM (ABL2) was 75% and the inhibition at 1 µM (Aurora A) was 7%. It also gave an inhibition at 1 µM (Aurora B) of 34%, an inhibition at 1 µM (BTK) of 13% and an inhibition at 1 µM (CDK1) of 12%. For the same molecule, the inhibition at 1 µM (CHEK1) was 11%, the inhibition at 1 µM (CSF1R) was 95% and the inhibition at 1 µM (EGFR) was 57%. The inhibition at 1 µM (ERBB4) was 2%, the inhibition at 1 µM (FER) was 6% and the inhibition at 1 µM (FGFR1) was 3%. It also gave an inhibition at 1 µM (FLT1) of 5%, an inhibition at 1 µM (FLT4) of 2% and an inhibition at 1 µM (FRAP1) of -5%. It also gave an inhibition at 1 µM (FYN) of 16%, an inhibition at 1 µM (ITK) of 8% and an inhibition at 1 µM (JAK2) of 4%. For the same molecule, the inhibition at 1 µM (MET) was 10%, the inhibition at 1 µM (MINK1) was 69% and the inhibition at 1 µM (MKNK1) was 1%. For the same molecule, the inhibition at 1 µM (MUSK) was 19%, the inhibition at 1 µM (PAK1) was 9% and the inhibition at 1 µM (PDGFRB) was 9%. For the same molecule, the “% inhibition PDGFRB” value (PDGFRB; 1 µM) was 8%, the inhibition at 1 µM (PLK1) was 7% and the inhibition at 1 µM (RET) was 14%. The inhibition at 1 µM (ROCK1) was -1% and the inhibition at 1 µM (TEK) was 8%.
